Reference: patent publication EP0574185B1, “PGE1 analogs” (NEWPHARMA INTERNATIONAL CORPORATION, priority 1992, dated 1993)

Tested on: rat uterus
Assay: Disappearance of exogenous PGF2α in rat uterus slices (R.I.A.)
Set-up: species or system Wistar rats
Method: An experiment was performed in which the disappearance of exogenous PGF2α was determined in the nutrient solution of slices of rat uterus both in the presence and absence of the synthetic PGE1 analog, B-407.
Seven Wistar rats weighing approximately 220 g were estrogenized by the subcutaneous administration of 100 µg/kg of 17β estradiol. Twenty-four hours later they were killed by decapitation. The uterine horns were dissected out and weighed. The horns were cut and washed with bubbled De Jalon nutrient solution plus 4x10^-7 M sodium diclofenac during 15 to 20 minutes. Both bubbling and diclofenac content were maintained in the following steps: each horn was then placed in a small organ bath and preincubated during 15 to 20 min with either the nutrient solution alone or containing B-407 10^-8 M or 10^-7 M. The assay was started by adding exogenous PGF2α (10^-8 M in the medium) to each horn previously changed to a new tube. A final volume of 0.4 ml was obtained with the addition of De Jalon solution at 37°C. Aliquots of […] were sampled at 0 min, 5 min, 15 min and 30 min. The PGF2α concentration in each sample was determined by R.I.A. (Sigma, NEN) and it was expressed as pg/mg of wet tissue.

CCCCC(C)(O)C/C=C/[C@H]1[C@H](O)CC(=O)[C@@H]1CCCC/C=C/C(=O)OC (mixture of isomers) [B-407, trans-Δ^2-15-deoxy-16-hydroxy-16-methyl PGE1 methyl ester]
PGF2α (pg/mg tissue) (B-407 10^-7 M, time 0 min, control 655,4): 667,2 pg/mg tissue | PGF2α (pg/mg tissue) (B-407 10^-7 M, time 5 min, control 582.8): 623,7 pg/mg tissue | PGF2α (pg/mg tissue) (B-407 10^-7 M, time 15 min, control 478.4): 561,7 pg/mg tissue | PGF2α (pg/mg tissue) (B-407 10^-7 M, time 30 min, control 227.5): 528,4 pg/mg tissue | PGF2α (pg/mg tissue) (B-407 10^-8 M, time 0 min, control 655,4): 705,7 pg/mg tissue | PGF2α (pg/mg tissue) (B-407 10^-8 M, time 5 min, control 582.8): 705,9 pg/mg tissue | PGF2α (pg/mg tissue) (B-407 10^-8 M, time 15 min, control 478.4): 563,6 pg/mg tissue | PGF2α (pg/mg tissue) (B-407 10^-8 M, time 30 min, control 227.5): 403,7 pg/mg tissue
